Source: patent publication US8263738B2, “Estrogen receptors and methods of use” (Creighton University, priority 2004, dated 2012)
Values belong to the compound of their own block, whether it stands above or below them.

Columns and labels:
ER-α36 [1] = molecular target: T1, ER-α36 (Homo sapiens, UniProt P03372, I452L); experiment: Western blot of MAPK pathway activation (ERK1/2, Mek1 phosphorylation) in ER-α36 transfected HEK293 cells; format: cell-based
T1 construct: expressed in transfected cells; transient transfectants for A11
T1 sequence (P03372 1-310 isoform P03372-4 I279L): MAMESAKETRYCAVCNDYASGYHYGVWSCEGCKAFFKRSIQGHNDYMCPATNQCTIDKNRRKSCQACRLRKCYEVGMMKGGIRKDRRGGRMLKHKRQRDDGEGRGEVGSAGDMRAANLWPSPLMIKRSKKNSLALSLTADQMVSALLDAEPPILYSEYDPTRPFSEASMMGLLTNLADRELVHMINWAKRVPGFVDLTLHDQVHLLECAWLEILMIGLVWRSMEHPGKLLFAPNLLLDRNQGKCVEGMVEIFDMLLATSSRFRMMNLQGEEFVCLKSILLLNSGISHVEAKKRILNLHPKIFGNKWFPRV
Procedure: (§1) Cell culture, establishment of stable cell lines and membrane-labeling with E2-BSA-FITC. MCF10A cells were obtained from Karmanos Cancer Institute at Detroit, Mich., and human embryonic kidney 293 cells, and all breast cancer cells were obtained from ATCC. All cells were maintained at 37° C. in a 5% CO2 atmosphere in appropriate tissue culture medium. […] The ER-α36 expression vector was constructed by cloning a 1.1-kb EcoRI-BamHI cDNA fragment of ER-α36 from pBS-ER-α36 into the EcoRI and BamHI sites of mammalian expression vector pCB6+. Empty vector was also transfected into cells to serve as controls. Forty-eight hours after transfection, the cells were replated and selected with 500 μg/ml of G418 (Invitrogen) for two weeks. The resulting uncloned population of G418-resistant cells was expanded to generate cells used for further analysis.
(§2) Western blot analysis, indirect immunofluorescence and antibodies. For Western blot analysis, cells were disrupted with RIPA buffer, boiled in gel loading buffer and separated on a 10% SDS-PAGE gel. After electrophoresis, the proteins were transferred to a PVDF membrane (Millipore). The filter was probed with various antibodies and visualized with appropriate HRP-conjugated secondary antibodies (Santa Cruz Biotechnology) and ECL reagents (Perkin Elmer Life Sciences).
(§3) Antibody against ERK1/2 (K-23) was purchased from Santa Cruz Biotechnology. Antibodies used to analyze activation of the MAP kinase pathway included the phosphorylated forms of Mek1 and ERK1/2, and were purchased from Cell Signaling Technology. Rat anti-ER-α antibody (H222) was purchased from Research Diagnostic Inc. Antibodies of COPB (Y-20), mSin3A (AK-11), and 5′ nucleotidase (H-300) were purchased from Santa Cruz biotechnology Inc. D4-GDI (clone 97A1015) was obtained from Upstate Biotechnology.

ER-α36 transfected cells = details: for block of E2β-stimulated cell growth by anti-estrogens: 10 nM anti-estrogen with E2β; for block of E2β-stimulated cell growth by anti-estrogens / growth of ER-α36 transfected cells, anti-estrogen alone: 48 hours; for growth of ER-α36 transfected cells, anti-estrogen alone: 10 nM
[2] = system: control 293 cells transfected with empty expression vector; experiment: Western blot of ERK1/2 phosphorylation in control 293 cells transfected with empty vector; format: cell-based, human
Procedure: as §1, §2
Antibody against ERK1/2 (K-23) was purchased from Santa Cruz Biotechnology. […]

[3] = system: control cells transfected with empty expression vector; experiment: MTT proliferation assay, control cells transfected with empty expression vector; format: cell-based, human; details: E2β
[4] = system: ER-α66 negative MDA-MB-231 cells; experiment: Anchorage-independent growth in soft agar; format: cell-based, human; details: three weeks
Source text: The cells were then overlaid onto a 0.7% (wt/vol) agar containing phenol-red free DMEM/F12 medium plus 10% E2-free fetal calf serum in five replica 60 mm dishes. […] After three weeks, colonies were scored using an inverted microscope.

[5] = system: ER-α66 negative MDA-MB-231 cells; experiment: Western blot of ERK1/2 phosphorylation in MDA-MB-231 cells; format: cell-based, human; details: 1 nM E2β, serum starved cells, different time periods
Source text: For Western blot analysis, cells were disrupted with RIPA buffer, boiled in gel loading buffer and separated on a 10% SDS-PAGE gel. After electrophoresis, the proteins were transferred to a PVDF membrane (Millipore). The filter was probed with antibody against ERK1/2 (K-23) (Santa Cruz Biotechnology), or antibody used against the phosphorylated form of ERK1/2 (Cell Signaling Technology).

[6] = system: control cells transfected with empty vector; experiment: GAL-Elk / 5×Gal4-LUC luciferase reporter in control cells transfected with empty vector; details: E2β
ER-α36 [7] = molecular target: T2, ER-α36 (Homo sapiens, UniProt P03372); experiment: Western blot of MAPK pathway activation (ERK1/2, Mek1 phosphorylation) in ER-α36 transfected HEK293 cells; format: cell-based; details: treated for 10 minutes
T2 construct: expressed in transfected cells; transient transfectants for A11
T2 sequence (P03372 1-310 isoform P03372-4 I279L): T1 sequence (P03372 1-310 isoform P03372-4 I279L)
Procedure: as §1, §2, §3

[8] = system: neurons of ER-α gene knockout (aERKO) mice; details: cited from earlier work
MDA-MB-231 cells = details: high concentration of Tamoxifen; cited from earlier work

block of ERK1/2 activation mediated by ER-α36 by anti-estrogens (ER-α36 [1]): did not block
effect on ERK1/2 activation compared to E2β alone (ER-α36 [1]): even stronger
Compound: 4OH-Tamoxifen
block of E2β-stimulated cell growth by anti-estrogens (ER-α36 transfected cells): did not block
growth of ER-α36 transfected cells, anti-estrogen alone (ER-α36 transfected cells): strongly stimulated growth

Compound: C[C@]12CC[C@@H]3c4ccc(O)cc4CC[C@H]3[C@@H]1CC[C@@H]2O [E2β, 17β-estradiol]
increase in the phosphorylation of ERK1/2 in control cells ([2]; E2β 10 nM, empty vector cells): not in the control cells
growth of control cells [3]: had no effect
anchorage-independent growth in soft agar ([4]; 1 nM E2β): strongly promoted
phosphorylation of ERK1/2 in MDA-MB-231 cells [5]: induced rapid phosphorylation
transcription activity of the Elk/Gal4 fusion protein in control cells [6]: had no effect

Compound: C[C@]12CC[C@@H]3c4ccc(O)cc4CC[C@H]3[C@@H]1[C@@H](O)[C@@H](O)[C@@H]2O [E4, estetrol]
activation of ERK1/2 phosphorylation by estrogens (ER-α36 [7]): activated ERK1/2 phosphorylation at a very similar level

Compound: C[C@]12CC[C@@H]3c4ccc(O)cc4C[C@@H](CCCCCCCCC[S+]([O-])CCCC(F)(F)C(F)(F)F)[C@H]3[C@@H]1CC[C@@H]2O (some centres unmarked) [ICI-182, 780]
block of E2β-mediated rapid actions in neurons [8]: not blocked

Compound: CC/C(=C(\c1ccccc1)c1ccc(OCCN(C)C)cc1)c1ccccc1 [Tamoxifen]
ERK1/2 activation by Tamoxifen in control cells ([2]; same concentration (1 μM), empty vector 293 cells): had no effect
effect of Tamoxifen on E2β-promoted growth in soft agar ([4]; 1 nM E2β combined with 1 nM tamoxifen): inhibits the effect of E2β
block of E2β-stimulated cell growth by anti-estrogens (ER-α36 transfected cells): did not block
growth of ER-α36 transfected cells, anti-estrogen alone (ER-α36 transfected cells): strongly stimulated growth
apoptosis in MDA-MB-231 cells (MDA-MB-231 cells): induce apoptosis

Compound: N#CC(=C(/N)Sc1ccccc1N)/C(C#N)=C(/N)Sc1ccccc1N [UO126]
inhibition of E2β-stimulated cell growth (ER-α36 transfected cells; 7.2 nM UO126, 48 hours): strongly inhibited
